# Measured values reported in ChEMBL document CHEMBL6120973 (J Med Chem, 2024).
# Tests used:
# [1] = test system: Human immunodeficiency virus 1; experiment: Antiviral activity against HIV-1 harboring RT L100I mutant infected in human MT4 cells assessed as protection against virus-induced cytopathic effect incubated for 5 days by MTT assay; format: functional, organism-based; conditions: Human immunodeficiency virus 1, MT4, 120 h
# [2] = test system: Human immunodeficiency virus 1; experiment: Antiviral activity against HIV-1 harboring RT Y188L mutant infected in human MT4 cells assessed as protection against virus-induced cytopathic effect incubated for 5 days by MTT assay; format: functional, organism-based; conditions: Human immunodeficiency virus 1, MT4, 120 h
# [3] = test system: Human immunodeficiency virus 1; experiment: Antiviral activity against HIV-1 harboring RT K103N/Y181C double mutant infected in human MT4 cells assessed as protection against virus-induced cytopathic effect incubated for 5 days by MTT assay; format: functional, organism-based; conditions: Human immunodeficiency virus 1, MT4, 120 h
# Cytochrome P450 1A2 = target: T1, Cytochrome P450 1A2 (Homo sapiens, UniProt P05177); experiment: Inhibition of CYP1A2 in human liver microsomes preincubated for 10 mins followed by NADPH addition and measured after 15 mins by LC/MS/MS analysis
# T1 sequence (P05177 whole entry): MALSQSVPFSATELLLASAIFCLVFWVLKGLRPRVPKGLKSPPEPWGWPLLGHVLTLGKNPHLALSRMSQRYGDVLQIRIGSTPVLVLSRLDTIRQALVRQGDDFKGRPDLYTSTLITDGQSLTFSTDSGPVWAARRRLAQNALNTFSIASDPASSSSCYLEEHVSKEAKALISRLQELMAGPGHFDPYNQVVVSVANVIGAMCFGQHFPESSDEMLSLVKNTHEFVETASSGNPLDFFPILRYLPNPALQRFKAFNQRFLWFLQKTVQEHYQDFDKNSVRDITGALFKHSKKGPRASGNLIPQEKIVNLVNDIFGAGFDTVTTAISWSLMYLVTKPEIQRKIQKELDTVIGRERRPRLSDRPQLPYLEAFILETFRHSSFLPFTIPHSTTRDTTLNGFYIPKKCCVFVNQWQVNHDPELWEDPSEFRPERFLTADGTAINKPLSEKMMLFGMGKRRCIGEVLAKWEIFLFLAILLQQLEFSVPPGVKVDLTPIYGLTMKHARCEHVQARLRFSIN
# Cytochrome P450 2C9 = Cytochrome P450 2C9 (Homo sapiens, UniProt P11712); experiment: Inhibition of CYP2C9 in human liver microsomes preincubated for 10 mins followed by NADPH addition and measured after 15 mins by LC/MS/MS analysis
# Cytochrome P450 2C9, sequence (P11712 whole entry): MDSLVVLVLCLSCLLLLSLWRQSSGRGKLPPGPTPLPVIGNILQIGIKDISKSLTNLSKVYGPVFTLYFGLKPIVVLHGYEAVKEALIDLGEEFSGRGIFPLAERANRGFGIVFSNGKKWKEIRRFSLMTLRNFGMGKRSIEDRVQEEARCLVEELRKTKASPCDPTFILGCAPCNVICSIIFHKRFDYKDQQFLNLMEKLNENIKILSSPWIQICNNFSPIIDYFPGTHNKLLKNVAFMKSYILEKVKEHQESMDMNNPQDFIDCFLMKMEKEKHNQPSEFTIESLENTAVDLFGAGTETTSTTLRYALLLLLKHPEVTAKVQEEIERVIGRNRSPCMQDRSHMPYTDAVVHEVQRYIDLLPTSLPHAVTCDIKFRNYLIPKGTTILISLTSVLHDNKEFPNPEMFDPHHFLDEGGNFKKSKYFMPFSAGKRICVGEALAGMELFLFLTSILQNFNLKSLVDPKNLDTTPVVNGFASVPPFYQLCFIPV
# [4] = Metabolic stability in rat liver microsomes assessed as half-life at 0.1 uM preincubated for 10 mins followed by NADPH addition and measured upto 60 mins by LC-MS/MS analysis; format: ADME, Microsome; conditions: time < 70 min
# [5] = Metabolic stability in dog liver microsomes assessed as half-life at 0.1 uM preincubated for 10 mins followed by NADPH addition and measured upto 60 mins by LC-MS/MS analysis; format: ADME, Canis lupus familiaris, Microsome; conditions: time < 70 min
# [6] = Acute toxicity in male ICR mouse assessed as effect on behavior at 2000 mg/kg, IG measured after 14 days; format: organism-based; conditions: in vivo, po, 336 h, time 14 day
# [7] = Acute toxicity in female ICR mouse assessed as effect on behavior at 2000 mg/kg, IG measured after 14 days; format: organism-based; conditions: in vivo, po, 336 h, time 14 day
# [8] = Acute toxicity in male ICR mouse assessed as effect on pathological damage in heart at 2000 mg/kg, IG measured after 14 days by H and E staining based analysis; format: organism-based; conditions: in vivo, po, 336 h, time 14 day
# [9] = Acute toxicity in male ICR mouse assessed as effect on pathological damage in lung at 2000 mg/kg, IG measured after 14 days by H and E staining based analysis; format: organism-based; conditions: in vivo, po, 336 h, time 14 day
# [10] = Acute toxicity in male ICR mouse assessed as effect on pathological damage in brain at 2000 mg/kg, IG measured after 14 days by H and E staining based analysis; format: organism-based; conditions: in vivo, po, 336 h, time 14 day
# [11] = Acute toxicity in female ICR mouse assessed as effect on pathological damage in liver at 2000 mg/kg, IG measured after 14 days by H and E staining based analysis; format: organism-based; conditions: in vivo, po, 336 h, time 14 day
structure (smiles),measurement,setting,value
Cc1cc(-c2ccncc2)cc(C)c1Nc1nc(Nc2ccc(C#N)cc2)ncc1-c1cn[nH]c1,EC50,[1],9 nM
same,EC50,[2],13 nM
same,EC50,[3],42 nM
same,IC50,Cytochrome P450 1A2,> 50000 nM
same,IC50,Cytochrome P450 2C9,> 50000 nM
same,half-life at 0.1 µM,[4],20.4 min
same,half-life at 0.1 µM,[5],58.8 min
same,Activity,[6],Non-toxic
same,Activity,[7],Non-toxic
same,Activity,[8],Non-toxic
same,Activity,[9],Non-toxic
same,Activity,[10],Non-toxic
same,Activity,[11],Non-toxic
